Source: patent US11911346B2, “Orally administrated therapeutic for treating mild cognitive impairment (MCI) and improving human cognitive function” (BrainCare LLC, priority 2021, dated 2024)

Test system: cognitive function of participants with Subjective Cognitive Decline
Assay: Cognitive Failures Questionnaire (CFQ), 8-week randomized study of one or two BCP capsules daily
Format: in vivo, human
Settings: for CFQ score: Do you bump into people? / CFQ score: Do you confuse left and right when giving people directions? / CFQ score: Do you daydream when you ought to be listening to something? / CFQ score: Do you fail to hear people speaking to you when you are doing something? / CFQ score: Do you fail to listen to people's names when you are meeting them for the first time? / CFQ score: Do you fail to notice signposts on the road? / CFQ score: Do you fail to see what you want in a supermarket (although it's there)? / CFQ score: Do you find that you drop things? / CFQ score: Do you find that you forget appointments? / CFQ score: Do you find you accidentally misplace things like placing the fruit in the cupboard and the bowl in the refrigerator? / CFQ score: Do you find you can't quite remember something although it's “on the tip of your tongue”? / CFQ score: Do you find you can't think of anything to say? / CFQ score: Do you find you forget people's names? / CFQ score: Do you find you forget what you came to the store to buy? / CFQ score: Do you find you forget whether you've turned off a light or locked the door? / CFQ score: Do you find you forget which way to turn on a road you know well but rarely use? / CFQ score: Do you find you forget why you went from one place of the house to the other? / CFQ score: Do you find yourself suddenly wondering if you used a word correctly? / CFQ score: Do you forget where you put something like a newspaper or a book? / CFQ score: Do you have trouble making up your mind? / CFQ score: Do you lose track of paying bills? / CFQ score: Do you lose your temper and regret it? / CFQ score: Do you read something and find you haven't been thinking about it and must read it again? / CFQ score: Do you say something and realize afterwards that it might be taken as an insult? / CFQ score: Do you start doing one thing at home and get distracted and do something else (unintentionally)? / Distractibility summed sub-score of CFQ / False triggering summed sub-score of CFQ / Forgetfulness summed sub-score of CFQ / Total CFQ summed sub-score: lower is better
[1] = one capsule daily (90 mg BCP), week 4
[2] = one capsule daily (90 mg BCP), week 8
[3] = two capsules daily (180 mg BCP), week 4

## C=C1CC/C=C(\C)CC[C@@H]2[C@@H]1CC2(C)C [BCP, beta-caryophyllene]
[1]
  CFQ % better vs. baseline: Do you bump into people?: 29% better
  CFQ % better vs. baseline: Do you daydream when you ought to be listening to something?: 16% better
  CFQ % better vs. baseline: Do you fail to hear people speaking to you when you are doing something?: 15% better
  CFQ % better vs. baseline: Do you fail to notice signposts on the road?: 17% better
  CFQ % better vs. baseline: Do you fail to see what you want in a supermarket (although it's there)?: 14% better
  CFQ % better vs. baseline: Do you find that you drop things?: 14% better
  CFQ % better vs. baseline: Do you find you accidentally misplace things like placing the fruit in the cupboard and the bowl in the refrigerator?: 17% better
  CFQ % better vs. baseline: Do you find you can't quite remember something although it's “on the tip of your tongue”?: 12% better
  CFQ % better vs. baseline: Do you find you can't think of anything to say?: 15% better
  CFQ % better vs. baseline: Do you find you forget people's names?: 12% better
  CFQ % better vs. baseline: Do you find you forget what you came to the store to buy?: 12% better
  CFQ % better vs. baseline: Do you find you forget whether you've turned off a light or locked the door?: 11% better
  CFQ % better vs. baseline: Do you find you forget which way to turn on a road you know well but rarely use?: 27% better
  CFQ % better vs. baseline: Do you find yourself suddenly wondering if you used a word correctly?: 14% better
  CFQ % better vs. baseline: Do you have trouble making up your mind?: 13% better
  CFQ % better vs. baseline: Do you lose track of paying bills?: 23% better
  CFQ % better vs. baseline: Do you read something and find you haven't been thinking about it and must read it again?: 11% better
  CFQ % better vs. baseline: Do you say something and realize afterwards that it might be taken as an insult?: 28% better
  CFQ % worse vs. baseline: Do you confuse left and right when giving people directions?: 17% worse
  CFQ % worse vs. baseline: Do you find that you forget appointments?: 25% worse
  CFQ change vs. baseline: Do you fail to listen to people's names when you are meeting them for the first time?: No change
  CFQ change vs. baseline: Do you lose your temper and regret it?: No change
  CFQ change vs. baseline: Do you start doing one thing at home and get distracted and do something else (unintentionally)?: no change
  CFQ score: Do you bump into people?: 0.5 ± 0.6
  CFQ score: Do you confuse left and right when giving people directions?: 0.7 ± 1.0
  CFQ score: Do you daydream when you ought to be listening to something?: 1.6 ± 0.8
  CFQ score: Do you fail to hear people speaking to you when you are doing something?: 1.7 ± 0.9
  CFQ score: Do you fail to listen to people's names when you are meeting them for the first time?: 2.2 ± 1.1
  CFQ score: Do you fail to notice signposts on the road?: 1.0 ± 0.7
  CFQ score: Do you fail to see what you want in a supermarket (although it's there)?: 1.2 ± 0.7
  CFQ score: Do you find that you drop things?: 1.2 ± 0.9
  CFQ score: Do you find that you forget appointments?: 1.0 ± 0.7
  CFQ score: Do you find you accidentally misplace things like placing the fruit in the cupboard and the bowl in the refrigerator?: 1.0 ± 0.8
  CFQ score: Do you find you can't quite remember something although it's “on the tip of your tongue”?: 2.3 ± 0.8
  CFQ score: Do you find you can't think of anything to say?: 1.1 ± 0.8
  CFQ score: Do you find you forget people's names?: 2.2 ± 1.0
  CFQ score: Do you find you forget what you came to the store to buy?: 1.5 ± 0.8
  CFQ score: Do you find you forget whether you've turned off a light or locked the door?: 1.6 ± 0.8
  CFQ score: Do you find you forget which way to turn on a road you know well but rarely use?: 0.8 ± 0.7
  CFQ score: Do you find you forget why you went from one place of the house to the other?: 1.7 ± 0.6
  CFQ score: Do you find yourself suddenly wondering if you used a word correctly?: 1.2 ± 0.8
  CFQ score: Do you forget where you put something like a newspaper or a book?: 1.8 ± 0.9
  CFQ score: Do you have trouble making up your mind?: 1.3 ± 0.7
  CFQ score: Do you lose track of paying bills?: 1.0 ± 0.8
  CFQ score: Do you lose your temper and regret it?: 1.1 ± 0.7
  CFQ score: Do you read something and find you haven't been thinking about it and must read it again?: 1.7 ± 0.9
  CFQ score: Do you say something and realize afterwards that it might be taken as an insult?: 1.1 ± 1.0
  CFQ score: Do you start doing one thing at home and get distracted and do something else (unintentionally)?: 2.3 ± 0.8
  Distractibility summed sub-score of CFQ: 11 ± 4
  False triggering summed sub-score of CFQ: 9 ± 4
  Forgetfulness summed sub-score of CFQ: 14 ± 5
  Total CFQ summed sub-score: 34 ± 10
[2]
  CFQ % better vs. baseline: Do you daydream when you ought to be listening to something?: 11% better
  CFQ % better vs. baseline: Do you fail to hear people speaking to you when you are doing something?: 20% better
  CFQ % better vs. baseline: Do you fail to listen to people's names when you are meeting them for the first time?: 14% better
  CFQ % better vs. baseline: Do you fail to notice signposts on the road?: 17% better
  CFQ % better vs. baseline: Do you fail to see what you want in a supermarket (although it's there)?: 7% better
  CFQ % better vs. baseline: Do you find that you drop things?: 14% better
  CFQ % better vs. baseline: Do you find you accidentally misplace things like placing the fruit in the cupboard and the bowl in the refrigerator?: 25% better
  CFQ % better vs. baseline: Do you find you forget people's names?: 12% better
  CFQ % better vs. baseline: Do you find you forget what you came to the store to buy?: 18% better
  CFQ % better vs. baseline: Do you find you forget whether you've turned off a light or locked the door?: 17% better
  CFQ % better vs. baseline: Do you find you forget which way to turn on a road you know well but rarely use?: 27% better
  CFQ % better vs. baseline: Do you find yourself suddenly wondering if you used a word correctly?: 14% better
  CFQ % better vs. baseline: Do you have trouble making up your mind?: 7% better
  CFQ % better vs. baseline: Do you lose track of paying bills?: 15% better
  CFQ % better vs. baseline: Do you lose your temper and regret it?: 9% better
  CFQ % better vs. baseline: Do you read something and find you haven't been thinking about it and must read it again?: 16% better
  CFQ % better vs. baseline: Do you say something and realize afterwards that it might be taken as an insult?: 20% better
  CFQ % better vs. baseline: Do you start doing one thing at home and get distracted and do something else (unintentionally)?: 4% better
  CFQ % worse vs. baseline: Do you confuse left and right when giving people directions?: 17% worse
  CFQ % worse vs. baseline: Do you find that you forget appointments?: 13% worse
  CFQ change vs. baseline: Do you bump into people?: No change
  CFQ change vs. baseline: Do you find you can't think of anything to say?: no change
  CFQ score: Do you bump into people?: 0.7 ± 0.6
  CFQ score: Do you confuse left and right when giving people directions?: 0.7 ± 0.9
  CFQ score: Do you daydream when you ought to be listening to something?: 1.7 ± 0.9
  CFQ score: Do you fail to hear people speaking to you when you are doing something?: 1.6 ± 0.9
  CFQ score: Do you fail to listen to people's names when you are meeting them for the first time?: 1.9 ± 1.2
  CFQ score: Do you fail to notice signposts on the road?: 1.0 ± 0.8
  CFQ score: Do you fail to see what you want in a supermarket (although it's there)?: 1.3 ± 0.9
  CFQ score: Do you find that you drop things?: 1.2 ± 0.7
  CFQ score: Do you find that you forget appointments?: 0.9 ± 0.8
  CFQ score: Do you find you accidentally misplace things like placing the fruit in the cupboard and the bowl in the refrigerator?: 0.9 ± 0.7
  CFQ score: Do you find you can't quite remember something although it's “on the tip of your tongue”?: 2.1 ± 0.7
  CFQ score: Do you find you can't think of anything to say?: 1.3 ± 0.8
  CFQ score: Do you find you forget people's names?: 2.2 ± 0.8
  CFQ score: Do you find you forget what you came to the store to buy?: 1.4 ± 0.8
  CFQ score: Do you find you forget whether you've turned off a light or locked the door?: 1.5 ± 0.7
  CFQ score: Do you find you forget which way to turn on a road you know well but rarely use?: 0.8 ± 0.7
  CFQ score: Do you find you forget why you went from one place of the house to the other?: 1.7 ± 0.6
  CFQ score: Do you find yourself suddenly wondering if you used a word correctly?: 1.2 ± 0.7
  CFQ score: Do you forget where you put something like a newspaper or a book?: 1.8 ± 0.7
  CFQ score: Do you have trouble making up your mind?: 1.4 ± 0.9
  CFQ score: Do you lose track of paying bills?: 1.1 ± 0.8
  CFQ score: Do you lose your temper and regret it?: 1.0 ± 0.6
  CFQ score: Do you read something and find you haven't been thinking about it and must read it again?: 1.6 ± 0.9
  CFQ score: Do you say something and realize afterwards that it might be taken as an insult?: 1.2 ± 0.7
  CFQ score: Do you start doing one thing at home and get distracted and do something else (unintentionally)?: 2.2 ± 0.6
  Distractibility summed sub-score of CFQ: 11 ± 3
  False triggering summed sub-score of CFQ: 9 ± 4
  Forgetfulness summed sub-score of CFQ: 13 ± 5
  Total CFQ summed sub-score: 33 ± 11
[3]
  CFQ % better vs. baseline: Do you bump into people?: 14% better
  CFQ % better vs. baseline: Do you confuse left and right when giving people directions?: 22% better
  CFQ % better vs. baseline: Do you daydream when you ought to be listening to something?: 28%
  CFQ % better vs. baseline: Do you fail to hear people speaking to you when you are doing something?: 12% better
  CFQ % better vs. baseline: Do you fail to listen to people's names when you are meeting them for the first time?: 22% better
  CFQ % better vs. baseline: Do you fail to notice signposts on the road?: 30% better
  CFQ % better vs. baseline: Do you fail to see what you want in a supermarket (although it's there)?: 15% better
  CFQ % better vs. baseline: Do you find that you drop things?: 27% better
  CFQ % better vs. baseline: Do you find that you forget appointments?: 30% better
  CFQ % better vs. baseline: Do you find you accidentally misplace things like placing the fruit in the cupboard and the bowl in the refrigerator?: 13% better
  CFQ % better vs. baseline: Do you find you can't quite remember something although it's “on the tip of your tongue”?: 20%
  CFQ % better vs. baseline: Do you find you can't think of anything to say?: 27% better
  CFQ % better vs. baseline: Do you find you forget people's names?: 20% better
  CFQ % better vs. baseline: Do you find you forget what you came to the store to buy?: 33% better
  CFQ % better vs. baseline: Do you find you forget whether you've turned off a light or locked the door?: 45%
  CFQ % better vs. baseline: Do you find you forget which way to turn on a road you know well but rarely use?: 33% better
  CFQ % better vs. baseline: Do you find you forget why you went from one place of the house to the other?: 39%
